The numbers were not newly measured in patent US20030168224A1, “Novel phosphorous-nitrogen compounds used as fireproofing agents in theroplastic molding materials and the production thereof” (priority 2000, published 2003), which cites them from elsewhere.

The conditions of data set [1]: prior-art product.
The conditions of data set [2]: prior-art product. This is another data set of the same source.

As for `N.O=C1NC(=O)NP(=S)(S)N1` [ammonium 4,6-dioxo-2-thiooxohexahydro-1,3,5,2-λ^5-triazaphosphorinane-2-thiolate], the “solubility in hot water” value in data set [1] is given as “highly soluble”. Also, the decomposition temperature in data set [2] is 230 °C.
